# Measured values from patent publication US11840686B2, “Modulation of prekallikrein (PKK) expression” (Ionis Pharmaceuticals, Inc., priority 2013, dated 2023).
# Strand notation (5' to 3'): a small letter for the sugar, then the base; units joined by * are phosphorothioate-linked, units joined directly phosphodiester-linked; [ ] holds rarer units or linkages, { } end groups; capitals alone tell only the bases. e = 2'-O-(2-methoxyethyl) (MOE); [5mC] = 5-methylcytosine; d = 2'-deoxy (DNA)
# System: human PKK mRNA
# Experiment: Antisense inhibition of human PKK mRNA in HepaRG cells, 5,000 nM (Example 2)
# Type: cell-based
# Outline: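 HepaRG cells, 20,000 per well, were electroporated with 5,000 nM MOE gapmer (phosphorothioate, 5-methylcytosine) and incubated about 24 hours. PKK mRNA was quantified by qRT-PCR with primer probe set RTS3454, normalized to RIBOGREEN total RNA, and expressed as percent inhibition versus untreated controls.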
# [1] = HepaRG cells, electroporation, 5,000 nM antisense oligonucleotide, approx. 24 hours, primer probe set RTS3454, relative to untreated control cells, Table 11
# [2] = Table 8, HepaRG cells, electroporation with 5,000 nM antisense oligonucleotide, approx. 24 hours, PKK mRNA by RT-PCR (RTS3454), relative to untreated control cells
# [3] = HepaRG cells, 5,000 nM antisense oligonucleotide, 5-10-5 gapmers, Table 16
# [4] = HepaRG cells, electroporation, 5,000 nM antisense oligonucleotide, approx. 24 hours, primer probe set RTS3454, relative to untreated control cells, Table 12
# [5] = HepaRG cells, electroporation with 5,000 nM antisense oligonucleotide, approximately 24 hours, PKK mRNA by RT-PCR (RTS3454), relative to untreated control cells, Table 6 experiment
# [6] = HepaRG cells, electroporation with 5,000 nM antisense oligonucleotide, approximately 24 hours, PKK mRNA by RT-PCR (RTS3454), relative to untreated control cells, Table 5 experiment
substance,measurement,setting,value
547468 (antisense eG*eT*eT*eG*eG*dT*dA*dT*dA*dA*dA*dT*dT*dG*dT*eG*e[5mC]*eT*eT*eG) [compound 547468],% inhibition,"Table 9 experiment, HepaRG cells, 20,000 cells per well, electroporation with 5,000 nM antisense oligonucleotide, approx. 24 hours, PKK mRNA by RT-PCR (RTS3454), relative to untreated control cells",61%
same,% inhibition,"Table 10 experiment, HepaRG cells, 20,000 cells per well, electroporation with 5,000 nM antisense oligonucleotide, approx. 24 hours, PKK mRNA by RT-PCR (RTS3454), relative to untreated control cells",46%
546386 (eA*eG*e[5mC]*e[5mC]*eA*dG*dA*d[5mC]*dA*dT*dT*dG*dT*d[5mC]*d[5mC]*eT*e[5mC]*eA*eG*e[5mC]; antisense) [compound 546386],% inhibition,[1],78%
547447 (antisense eA*eT*eT*eT*eG*dT*dG*dA*dG*dA*dA*dA*dG*dG*dT*eG*eT*eA*eT*e[5mC]) [compound 547447],% inhibition,[2],80%
548748 (antisense eG*eT*eA*e[5mC]*dT*dA*dG*dT*dT*dT*d[5mC]*d[5mC]*dT*dA*eT*eA*eA*e[5mC]) [compound 548748],% inhibition,"human PKK mRNA, HepaRG cells, 5,000 nM antisense oligonucleotide, Table 18",0%
547599 (antisense eT*eT*e[5mC]*e[5mC]*eT*dA*dT*dA*dA*d[5mC]*dT*dA*dT*dA*dA*e[5mC]*eA*eA*eT*eA) [compound 547599],% inhibition,"human PKK mRNA in HepaRG cells, 5-10-5 gapmers, Table 14",4%
546385 (eA*eT*eT*eG*eT*d[5mC]*d[5mC]*dT*d[5mC]*dA*dG*d[5mC]*dA*dG*d[5mC]*eT*e[5mC]*eT*eG*eA; antisense) [compound 546385],% inhibition,[1],67%
547687 (antisense eA*e[5mC]*eT*eG*eT*d[5mC]*d[5mC]*dT*dA*dT*dA*dA*d[5mC]*dT*dA*eT*eA*eT*e[5mC]*eA) [compound 547687],% inhibition,[3],41%
547549 (antisense e[5mC]*e[5mC]*e[5mC]*eA*eT*dG*d[5mC]*dA*dT*dA*d[5mC]*dT*d[5mC]*dG*d[5mC]*e[5mC]*eT*eT*eT*eG) [compound 547549],% inhibition,[4],36%
547343 (antisense e[5mC]*eA*e[5mC]*eA*eT*dT*dA*dA*dA*dA*dT*dT*dG*dA*d[5mC]*eT*e[5mC]*e[5mC]*eT*e[5mC]) [compound 547343],% inhibition,[5],78%
547362 (e[5mC]*eA*eA*e[5mC]*eA*dT*d[5mC]*d[5mC]*dA*d[5mC]*dA*dT*d[5mC]*dT*dG*eA*eG*eA*eA*e[5mC]; antisense) [compound 547362],% inhibition,[5],47%
546503 (eG*eT*eG*eA*eT*dG*d[5mC]*dG*dA*dT*dT*dT*dT*d[5mC]*d[5mC]*eA*eT*eG*e[5mC]*eA; antisense) [compound 546503],% inhibition,[4],53%
546155 (e[5mC]*e[5mC]*eT*e[5mC]*eA*dT*d[5mC]*dT*dG*dG*d[5mC]*dA*dG*dT*dA*eT*eT*eG*eG*eG; antisense) [compound 546155],% inhibition,[6],47%
546366 (antisense eT*eG*e[5mC]*e[5mC]*eT*dA*dG*dA*d[5mC]*dT*d[5mC]*dT*dG*dG*dA*e[5mC]*eT*eG*e[5mC]*eT) [compound 546366],% inhibition,[1],79%
546824 (eG*eT*eA*e[5mC]*eT*dA*dG*dT*dT*dT*d[5mC]*d[5mC]*dT*dA*dT*eA*eA*e[5mC]*eT*eG; antisense) [compound 546824],% inhibition,"Table 13, human PKK mRNA in HepaRG cells, 5-10-5 gapmers",79%
546416 (e[5mC]*eT*eG*e[5mC]*eA*dG*dG*d[5mC]*dA*dA*dT*dA*dT*dT*dT*eT*eG*e[5mC]*eT*eT; antisense) [compound 546416],% inhibition,[4],62%
547425 (eT*eA*eA*e[5mC]*e[5mC]*dA*dG*dA*dG*d[5mC]*dT*d[5mC]*d[5mC]*d[5mC]*dT*eT*eG*eT*eG*eT; antisense) [compound 547425],% inhibition,[2],85%
547508 (antisense e[5mC]*e[5mC]*e[5mC]*e[5mC]*eA*dG*dG*d[5mC]*dT*d[5mC]*dA*dG*dA*dA*dT*eT*eT*eG*eA*e[5mC]) [compound 547508],% inhibition,[1],69%
546529 (eG*e[5mC]*eA*e[5mC]*e[5mC]*dT*dG*dG*d[5mC]*dA*dG*dA*dA*d[5mC]*dA*eG*eT*eA*e[5mC]*e[5mC]; antisense) [compound 546529],% inhibition,[3],65%
547299 (antisense eA*eA*eA*e[5mC]*eT*dG*dA*dA*dT*dA*dG*d[5mC]*dA*dA*dA*e[5mC]*eA*e[5mC]*e[5mC]*eT) [compound 547299],% inhibition,[6],76%
546173 (antisense e[5mC]*eG*eA*eT*eG*dT*dA*d[5mC]*dT*dT*dT*dT*dG*dG*d[5mC]*eA*eG*eG*eG*eT) [compound 546173],% inhibition,[6],84%
